Columns and labels:
[1] = cited from earlier work
[2] = test system: cancer cell strains DU145, HT29, HCC2998, MKN7, MDA-MB-231, MCF-7; experiment: Intracellular and extracellular PpIX amount in cancer cell strains, ALA plus serial dilutions of inhibitor (Examples 1, 3, 4, 5); format: cell-based; details: in combination with 1 mM ALA; for extracellular PpIX amount (corrected with amount of protein) / intracellular PpIX amount (corrected with amount of protein): cultured 4 hours, compared to ALA alone, six cancer cell strains
From the text: Six types of cells strains were employed as cancer cell strains: […], large intestine cancer cell strains (HT29, HCC2998), stomach cancer cell strain (MKN7), and mammary gland cancer cell strains (MDA-MB-231, MCF-7). For the medium, RPMI 1640 (from Wako) supplemented with 5% inactivated fetal bovine serum (FBS, from Biowest) was employed (hereinafter referred to as RPMI medium). Two types of inhibitors are known to exist for dynamin: one is an inhibitor that targets the GAS domain, whereas the other is an inhibitor that targets the PH domain. Iminodyn22 (from abcam) was used as the inhibitor that targets the GAS domain. Further, OcTMAB (from abcam) was used as the inhibitor that targets the PH domain.
To 1 mg of OcTMAB was added 255 μL of dimethyl sulfoxide (DMSO, from Wako), and this was mixed to make an OcTMAB 10 mM stock solution. Further, to 1 mg of Iminodyn22 was added 208 μL of DMSO, and this was mixed to make an Iminodyn22 10 mM stock solution. The OcTMAB 10 mM stock solution was diluted with the RPMI medium to adjust to 16 μM. The Iminodyn22 10 mM stock solution was diluted with the RPMI medium to adjust to 40 μM. The OcTMAB and Iminodyn22 prepared were each serially diluted with the RPMI medium to create six serial dilutions. Each of these dynamin inhibitor-containing medium was mixed with an equal amount of the RPMI medium comprising 2 mM aminolevulinic acid hydrochloride salt (ALA) to prepare ALA/OcTMAB and ALA/Iminodyn22-containing mediums.
Each cancer cell strain was seeded in a 96-well plate (black with transparent bottom; from Corning) at a density of 1.25×10^4 cells/well (only MDA-MB-231 was seeded at 2.0×10^4 cells/well), and this was cultured overnight at 37° C. After the overnight culture, the culture supernatant was removed, 200 μL each of ALA/OcTMAB-containing medium or ALA/Iminodyn22-containing medium described above were added to each well, and this was cultured for 4 hours under a 37° C. condition. After 4 hours, 100 μL of each culture supernatant were transferred to another 96-well plate, and this was set as the extracellular PpIX measuring plate. The remaining culture supernatant was removed, each cell strain was washed once with phosphate buffered saline (PBS, from Wako), and then 100 μL per well of 1% dodecyl sodium sulfate (SDS, from Wako) aqueous solution was added to dissolve the cells, and this was set as the intracellular PpIX measuring plate. Protoporphyrin IX standard sample (PpIX, from Funakoshi Co., Ltd.) was dissolved in DMSO solution to create 1 mM PpIX stock solution. The 1 mM PpIX stock solution was diluted with each of 1% SDS solution and RPMI medium, and PpIX standard solutions with final concentrations of 0-1000 nM were prepared. The PpIX standard solutions prepared with 1% SDS were added to unused wells in the intracellular accumulation PpIX measuring plate, and the standard solutions prepared with the RPMI medium were added to unused portions of the extracellular export PpIX measuring plate at 100 μL each. The fluorescence intensity of the intracellular PpIX measuring plate and the extracellular PpIX measuring plate was measured with a microplate reader (infinite M200PRO; from TECAN) under the condition of excitation light at 405 nm and measurement wavelength at 635 nm. After measurement, a standard curve was created from the fluorescence intensity of the PpIX standard solutions, and the amount of PpIX in each well was calculated from the standard curve.
In order to correct the amount of PpIX measured by the above method with the amount of protein, the amount of protein contained in each sample of the intracellular PpIX measuring plate was measured. Pierce™ BCA Protein Assay Kit (from Thermo Fisher) was used for measuring the amount of protein. BCA reagent A and BCA reagent B were mixed at a proportion of 50:1 to prepare the BCA reaction solution. […]

[3] = test system: cancer cell strains DU145, HT29, HCC2998, MKN7, MDA-MB-231, MCF-7; experiment: Intracellular and extracellular PpIX amount, combination use of OcTMAB and FTC with ALA (Example 2); format: cell-based; details: final concentration ALA 1 mM, OcTMAB 8 μM, FTC 10 μM, 4 hours; compared between combination use groups
Description: Six types of cells strains were employed as cancer cell strains: […], large intestine cancer cell strains (HT29, HCC2998), stomach cancer cell strain (MKN7), and mammary gland cancer cell strains (MDA-MB-231, MCF-7). Fumitremorgin C (FTC, from sigma) was dissolved in DMSO to create a 2 mM stock solution, and then adjusted to 40 μM with the RPMI medium. For OcTMAB, the 10 mM stock solution was adjusted with the RPMI medium to 32 μM. The 40 μM FTC-containing RPMI medium was added to an equal amount of 32 μM OcTMAB-containing medium to prepare a 16 μM OcTMAB/20 μM FTC-containing medium. Note that FTC is an inhibitor of ABCG2 (a transporter that extracellularly exports PpIX), and is known as a compound that has the effect of inhibiting extracellular export of PpIX.
Each cancer cell strain was seeded in a 96-well plate (black with transparent bottom) at a density of 1.25×10^4 cells/well (only MDA-MB-231 was seeded at 2.0×10^4 cells/well), and this was cultured overnight at 37/C. After the overnight culture, the culture supernatant was removed, 100 μL each of 2 mM ALA-containing RPMI medium was added to each well. […]
In order to correct the above PpIX amount measurement result with the amount of protein, the amount of protein in each sample for measuring the intracellular PpIX amount was measured. […]

Row | SMILES | time until metabolized in vivo and excreted [1] | inhibitor concentration at which the increase in the amount of PpIX accumulated peaks ([2]; 4 hours) | extracellular PpIX amount (corrected with amount of protein) [2] | intracellular PpIX amount (corrected with amount of protein) [2] | inhibitor concentration at which the decrease of extracellular PpIX amount peaks ([2]; 4 hours) | extracellular PpIX amount (PpIX extracellular export) [3] | intracellular PpIX amount [3]
1 | NCC(=O)CCC(=O)O [ALA, 5-aminolevulinic acid] | ≤ 48 h |  |  |  |  |  | 
2 | CCCCCCCCCCCCCCCCCC[N+](C)(C)CCN1C(=O)[C@@H]2[C@H](C1=O)[C@H]1CC[C@@H]2O1.[Br-] [RTIL13] |  | ~10 µM | decrease of extracellular PpIX amount dependent on the concentration of RTIL13 | increase in the amount of PpIX accumulated |  |  | 
3 | O=c1[nH]c2ccccc2n1C1CCN(Cc2ccc(-c3nc4cc5nc[nH]c5cc4nc3-c3ccccc3)cc2)CC1 [Akt inhibitor VIII] |  | ~5 µM | decrease of extracellular PpIX amount | increase in the amount of PpIX accumulated | ~5 µM |  | 
4 | CCCCCCCCCCCCCCCCCC[N+](C)(C)C.[Br-] [OcTMAB] |  |  | decrease of extracellular PpIX amount dependent on the concentration of OcTMAB | increase of intracellular PpIX amount dependent on the concentration of OcTMAB |  | effect similar to ETC for suppressing PpIX extracellular export | increased intracellular PpIX similar to or more than the ALA and ETC combination use group
5 | N=c1oc2c(O)c(O)ccc2cc1C(=O)NCCCNC(=O)c1cc2ccc(O)c(O)c2oc1=N [iminodyn22] |  |  | no change in the intracellular and extracellular PpIX amounts | no change in the intracellular and extracellular PpIX amounts |  |  | 
6 | CCCCCCCCCCCCCC[N+](C)(C)C.[Br-] [MiTMAB] |  |  | decrease of extracellular PpIX amount dependent on the concentration of MiTMAB | increase of intracellular PpIX amount dependent on the concentration of MiTMAB |  |  | 

— US20220370395A1, “ENHANCER OF PHOTODYNAMIC EFFECT IN ALA-PDT OR ALA-PDD” (SBI PHARMACEUTICALS CO., LTD., priority 2017, published 2022)
